The subject of series [1] is mouse peritoneal exudate cells. The series is described as follows: IL-1β production by mouse peritoneal macrophages (ELISA). Type of series: cell-based. How it is done:
(§1) BALB/C mice were intraperitoneally injected with a 4% solution of thioglycollate. Six days later, peritoneal exudate cells (PEC) were collected by washing the peritoneal cavity with phosphate buffer saline. Cells were distributed in wells of tissue culture 12 well plates (10^6 cells/well). Non-adherent cells were washed and adherent cells were treated. with 1 μg/ml of Ultrapure LPS (Invivogen) in the presence or the absence of 200 nM of 17-AAG (Invivogen). (a) After overnight culture, the supernatants were collected and used for determination of TNF by ELISA. (b, c) Fresh medium was added on the cells in the presence or the absence of 2 mM of ATP or 100 μg/ml MSU. After 5 hours, the supernatants were collected and IL-1β was determined by ELISA. (d) Mouse peritoneal macrophages were treated with 500 ng/ml of Ultrapure LPS (Invivogen) in the presence or the absence of 50 nM of 17-DMAG (Invivogen). 2 hours later, cells were stimulated with 500 μg/ml MSU. After 4 hours, the supernatants were collected and IL-1β was determined by ELISA. (e) Human blood monocytes were treated with 1 μg/ml of Ultrapure LPS (Invivogen) in the presence or the absence of graded doses of 17-DMAG (Invivogen). After overnight culture, cells were stimulated with 100 μg/ml MSU. After 6 hours, the supernatants were collected and IL-1β was determined by ELISA.
Eight to twelve week-old mice of indicated genotypes were injected i.p. with 4% thioglycollate solution, and macrophages were collected by peritoneal lavage 3-6 days later. Cells were plated at the density of 7×10^5 cells in twelve-well dishes and. non-adherent cells were removed after 3 h. Cells were cultured in RPMI complemented with 10% FCS, sodium pyruvate, penicillin/streptomycin and L-glutamin. All cells were stimulated in OptiMEM medium as described above. Caspase-1 was analyzed using an antibody from Santa Cruz Biotechnology (se-514) and ASC using an antibody as described previously^34. The antibody against mouse IL-1β[…]was a gift from Roberto Solari, Glaxo. […]
In general terms: An ELISA detects its analyte on a solid surface through an enzyme-linked reagent.

The test system of series [2] is mouse peritoneal exudate cells. The experiment in a line: TNF production by LPS-treated mouse peritoneal exudate cells (ELISA). Type of series: cell-based. Particulars: 200 nM, 1 μg/ml LPS overnight; FIG. 8a. How it is done: as §1, with “2 hours later, cells were stimulated with 500 μg/ml MSU.” left out, “(e) Human blood monocytes were treated with 1 μg/ml of Ultrapure LPS (Invivogen) in the presence or the absence of graded doses of 17-DMAG (Invivogen). After overnight culture, cells were stimulated with 100 μg/ml MSU.” left out
Eight to twelve week-old mice of indicated genotypes were injected i.p. with 4% thioglycollate solution, and macrophages were collected by peritoneal lavage 3-6 days later. […] Caspase-1 was analyzed using an antibody from Santa Cruz Biotechnology (se-514) and ASC using an antibody as described previously^34. […]

Series [3] relates to THP1 cells. The experiment in a line: TNF-α production by stimulated THP1 cells (ELISA). Type of series: cell-based, human. The note with it: FIG. 5a. How it is done:
(§2) a, THP1 cells were stimulated with MSU, CPPD or Zymosan (Zym) for the indicated, times in the presence or absence of the caspase-1 inhibitor zYVAD-fink. Supernatants were analyzed for TNF-α (gray bars) and IL-1β (black bars) production by ELISA. b, human monocytes were incubated with MSU or CPPD in the presence of two concentrations of IL-1Ra. TNF-α and IL-6 production was monitored by ELISA.
(§3) THP1 were stimulated for 3 h with 0.5 μM of PMA the day before stimulation as described^10. This treatment increases the phagocytic properties of the cells and induces a constitutive production of proIL-1β^33. Human monocytes were purified as described before^30. All cells were stimulated in OptiMEM medium as indicated. Human mature IL-1β was detected with a specific antibody directed. against the cleaved epitope (D116) from Cell Signalling, or with an Enzyme-linked immunoabsorbent assay (ELISA) from BD bioscience. TNF and IL-6 were detected by an ELISA from ImmunoTools and caspase-1 by an ELISA from Alexis. IL-18 was detected. with an antibody from MBL (D044-3) and. Caspase-1 with an antibody from Santa Cruz Biotechnology (sc-622), The antibody against human IL-1β[…] was a gift from Roberto Solari, Glaxo. z-YVAD-fmk was purchased from Alexis Biochemicals. IL-1ra (anakinra, Kineret) was from Amgen (thousand Oaks, USA).

Series [4] relates to THP1 cells. The series is described as follows: IL-1β maturation in PMA-primed THP1 cells stimulated with crystals or ATP (Western blot). Type of series: cell-based, human. Here is the method:
a-c, THP1 cells were stimulated for 6 h with the indicated amounts/ml of MSU crystals (a), CPPD (b) or with 50 μg/ml of pure LPS, MSU, allopurinol crystals, CPPD crystals, diamond crystals, aluminum particles, zymosan, crude preparations of LPS, or 5 mM of extracellular ATP as indicated (c). Supernatants (SN) were analyzed for the presence of mature IL-1β, IL-18 or caspase-1, and cell extracts (Cell) for the presence of proIL-1β and proIL-18. d, human monocytes were stimulated with 50 μg/ml of the indicated crystals for 6 h and analyzed by Western blot for IL-1β activation or by ELISA for released. caspase-1 and IL-1β.
THP1 cells were pre-treated with the P2X antagonist pyridoxal-phosphate-6-azophenyl-2′,4′-disulfonic acid (PPADS, Alexis) for 30 min and subsequently stimulated for 6 h with MSU crystals (50 μg/ml). Supernatants (SN) were analyzed for the presence of mature IL-1β and cell extracts (Cell) for the presence of proIL-1β.
THP1 cells were stimulated with MSU, CPPD or ATP in the presence or absence of colchicine (colch). Maturation of IL-1β was analyzed by Western Blot.
as §3
For orientation: A western blot detects proteins with antibodies after separation by electrophoresis.

The next series relates to gout. The series is described as follows: Case reports of patients with proven gout. Type of series: in vivo, human. Particulars: for adverse effects of earlier gout treatments: patient history in cases 1-4, doses as stated per case; for response of acute gouty arthritis / recurrence on follow-up: gout patients; for response of acute gouty arthritis: anakinra 100 mg daily for 2-3 days (cases 1-3); for recurrence on follow-up: one to two months after anakinra; for response of gouty arthritis to earlier treatment: cases 3 and 4, prednisone 30 mg daily tapering over 7 days, colchicine 1 mg daily. Here is the method: Four patients with proven gout were treated with anakinra (Kineret).

In the next series the test system is human monocytes. The series is described as follows: TNF-α and IL-6 production by human monocytes incubated with MSU or CPPD (ELISA). Type of series: cell-based. The note with it: two concentrations of IL-1Ra, FIG. 5b. Here is the method:
as §2, §3

The test system of series [5] is MSU-induced neutrophil recruitment. The series is described as follows: MSU crystal-induced aseptic peritonitis, neutrophil recruitment (FACS). Type of series: in vivo, mouse. How it is done:
Aseptic peritonitis was induced in female C57BL/6 mice by injection of 500 μg monosodium urate crystals (MSU) with PBS, 200 μg anakinra (Kineret, Amgen Inc., Thousand Oaks, USA), 200 μg anti-IL-1RI monoclonal antibody (BD Pharmingen, San Jose, USA), 200 μg anti-IL-1α monoclonal antibody (Biolegend, San Diego, USA), 200 μg anti-IL-1β monoclonal antibody ((Biolegend, San Diego, USA), or combination of 200 μg anti-IL-1α monoclonal antibody and 200 μg anti-IL-1β monoclonal antibody. After 6 h, mice were killed and the peritoneal cavity was washed with 10 ml of cold PBS. The lavage fluids were analyzed for neutrophil recruitment by FACS using the neutrophil markers CD11b and Gr1 (Ly-6G). Values are±s.e.m. of total neutrophil counts with 4-5 animals per group, Unpaired Students t test was used to calculate P value. […] The lavage fluids were analyzed for neutrophil recruitment by FACS using the neutrophil markers CD11b and Gr1 (Ly-6G), Values are±s.e.m. of total neutrophil counts with 4-5 animals per group. […] The lavage fluids were analyzed for neutrophil recruitment by FACS using the neutrophil markers CD11b and Gr1 (Ly-6G). […] The lavage fluids were analysed for PMN recruitment by FACS using the neutrophil marker Ly-6G and CD11b (BD Pharmingen).

In another series the test system is human blood monocytes. The experiment in a line: IL-1β production by MSU-stimulated human blood monocytes (ELISA). Type of series: cell-based. Particulars: graded doses, LPS overnight, 100 μg/ml MSU 6 h; FIG. 8e. How it is done: as §1
Another series has as its system MSU-induced inflammation. The note with it: intravenous pretreatment; cited from earlier work.
For series [6] the following is noted: oral; cited from earlier work.

“Also recorded” adds a separate entry of the source.

For the compound `C=CCNC1=C2C[C@@H](C)C[C@H](OC)[C@H](O)[C@@H](C)/C=C(\C)[C@H](OC(N)=O)[C@@H](OC)/C=C\C=C(/C)C(=O)NC(=CC1=O)C2=O` [17-AAG, 17-(Allylamino)-17-demethoxygeldanamycin], the “production of IL-1β by mouse macrophages stimulated by MSU crystals” value in series [1] (200 nM, LPS overnight, 100 μg/ml MSU 5 h, FIG. 8c) is on record as “almost completely inhibited”. Besides, the “production of IL-1β by mouse macrophages stimulated by ATP” value in series [1] (200 nM, LPS overnight, 2 mM ATP 5 h, FIG. 8b) is given as “almost completely inhibited”. The “reduction of TNFα production” value in [2] is given as “less than 50%”.

Take `COC(=O)C[C@H](NC(=O)[C@H](C)NC(=O)[C@@H](NC(=O)[C@H](Cc1ccc(O)cc1)NC(=O)OCc1ccccc1)C(C)C)C(=O)CF` [zYVAD-fmk]: in the series on THP1 cells [3], the “TNF-α production by the TLR2 agonist Zymosan” value is “without affecting”; the “reduction of TNF-α production induced by MSU and CPPD” value is “more than 50%”. Besides, in the series with THP1 cells [4] (MSU crystals, 6 h, FIG. 1a), the “MSU-induced IL-1β activation” value is recorded as “completely blocked”.

As to `O=C(O)Cc1ccccc1Nc1c(Cl)cccc1Cl` [diclofenac], the “adverse effects of earlier gout treatments” value (from here on “adverse effects”) with gout is given as “gastrointestinal side effects including one episode of G-I hemorrhage”.

Turning to “anakinra: IL-1 receptor type I (IL-1RI) antagonist, IL-1Ra also known as anakinra, marketed under the name Kineret”, in the series with human monocytes, the “IL-6 production by human monocytes” value was “significantly affected” and the “TNF-α production by human monocytes” value is listed as “significantly affected”. For the same compound, the neutrophil influx result in series [5] (female C57BL/6 mice, 500 μg MSU, 200 μg of each agent, 6 h, FIG. 12) was “almost entirely prevented”. Besides, in the series with gout, the “response of acute gouty arthritis” value was “complete resolution of arthritis by the second day; also recorded: responded rapidly” and the recurrence on follow-up result is on record as “no recurrence of arthritis; also recorded: asymptomatic two months later”. Besides, in the series on gout (listed as Anakinra), the “response of acute gouty arthritis” value is “rapid reduction in joint pain over 48 h” and the recurrence on follow-up entry is listed as “No acute flares”. Besides, in the series with gout (listed as Anankinra), the “response of acute gouty arthritis” value is “rapid resolution of signs and symptoms of arthritis”; the recurrence on follow-up result is given as “no further flare-ups”.

As for `CCc1oc2ccccc2c1C(=O)c1cc(Br)c(O)c(Br)c1` [benzbromazone], in the series with gout, the “adverse effects” value is “renal stones”.

On to `C[C@]12C=CC(=O)C=C1CC[C@@H]1[C@@H]2C(=O)C[C@@]2(C)[C@H]1CC[C@]2(O)C(=O)CO` [prednisone], for which, in the series with gout, the “response of gouty arthritis to earlier treatment” value is listed as “the arthritis remained active”.

`CO[C@H]1/C=C\C=C(/C)C(=O)NC2=CC(=O)C(NCCN(C)C)=C(C[C@@H](C)C[C@H](OC)[C@H](O)[C@@H](C)/C=C(\C)[C@@H]1OC(N)=O)C2=O` [17-DMAG, 17-(Dimethylaminoethylamino)-17-demethoxygeldanamycin]: the “production of IL-1β by mouse macrophages stimulated by MSU crystals” value in [1] (50 nM, LPS 2 h, 500 μg/ml MSU 4 h, FIG. 8d) was “inhibited”. Also, the “neutrophil influx in response to MSU” value in [5] (female BALB/C mice, 25 mg/kg intraperitoneally 1 h before 500 μg MSU, FIG. 14) was “reduced”. For the same compound, in the series with human blood monocytes, the “production of IL-1β by human blood monocytes stimulated by MSU crystals” value is “inhibited”.

On to `COc1cc2c(c(OC)c1OC)-c1ccc(OC)c(=O)cc1[C@@H](NC(C)=O)CC2` [colchicine], for which the “inflammation after intraarticular MSU injections” value in the series on MSU-induced inflammation is “greatly reduces inflammation”. Besides, the “response of gouty arthritis to earlier treatment” value in the series on gout is reported as “ineffective”. For the same compound, the “adverse effects” value is reported as “rectal bleeding; also recorded: diarrhea” in the series with gout and “intolerable diarrhea; also recorded: rapid onset of diarrhea” with gout (listed as Colchicine). The “side effects limiting use” value in [6] is “nausea and abdominal pain”. Also, the “IL-1β activation by extracellular ATP” value in the series with THP1 cells [4] (FIG. 6) is reported as “did not affect”. Moreover, the “crystal-induced processing of IL-1β” value in the series on THP1 cells [4] (MSU or CPPD, pretreatment, FIG. 6) is reported as “completely blocked”.

As to `Oc1ncnc2[nH]ncc12` [allopurinol], the “adverse effects” value in the series on gout is recorded as “severe cutaneous reaction; also recorded: acute gout developed after the first dose; also recorded: induced flare-ups of arthritis”.

Source of the values: US20130302344A1, “METHODS AND MEDICAMENTS FOR THE TREATMENT OF GOUT OR PSEUDOGOUT” (TOPOTARGET SWITZERLAND SA, priority 2006, published 2013).
